# Test results taken from US4020111A, “Propynyloxy alkyl arene insecticides” (priority 1975, dated 1977).
# Experiments:
# [1] = test system: IN/WHO strain house flies; experiment: topical application test, percent kill after 24 hours, IN/WHO strain; format: in vivo, house fly (susceptible IN/WHO strain); conditions: HRS 1422 alone 0.125 μg/fly
# Experimental: In Table IX, and in the tables following it, the doses of topically applied insecticides and of synergists unless otherwise noted are expressed as micrograms per fly (μg/fly).
# The synergistic effect of O-(2-propynyl) oximes with mobam was determined from topical application tests on susceptible, female, IN/WHO strain house flies and from tests on resistant, female, Rutgers A strain house flies. The synergist and insecticide were dissolved in ACS Grade acetone in such quantities that a 1.0μ liter volume applied to the thorax of 3-to-5 day old CO2 -anesthetized female adult house flies contained the desired dosage. After being treated, the flies were confined, 10 to a plaster petri dish, with 3-5 dishes/treatment, and held for 24-hr. observation of mortality. Reconstituted skim milk on cotton dental wicks was provided during the holding period. The percent kills after 24 hours are shown in Table X for the IN/WHO strain and Table XI for the Rutgers A strain.
# The synergistic effect of benzyl 2-propynyl ethers with mobam was determined from topical application tests on IN/WHO and Rutgers A strain houseflies, following the procedure of Example 5. The percent kills after 24 hours are shown in Table XIV for the IN/WHO strain and in Table XV for the Rutgers A strain.
# The effects of varying the insecticide dose and the synergist-insecticide ratio are further illustrated, with synergist compounds II-D, II-E, II-F and Mobam insecticide, in Tables XVI, XVII and XVIII.
# The synergistic effect on IN/WHO flies of synergist compound II-K with Dimetilan, pyrolan, Baygon and HRS 1422 is illustrated by the 24 hour percent mortality data in Tables XIX, XX and XXI.
# The effect on IN/WHO flies of synergist compound IV-C, identified in Table IV, with mobam was determined by the topical application procedure of Example 5.
# The synergistic effect with Diazinon of compounds I-B, I-D, I-F, I-G, I-H and I-I, identified in Tables I and Ia, was determined from topical application tests on IN/WHO strain houseflies and on Rutgers A strain houseflies by the procedure of Example 5. The percent kills after 24 hours are shown in Table XXV for the IN/WHO strain and Table XXVI for the Rutgers A strain.
# The synergistic effect with GS 13005 of compounds I-A, I-B, I-D, I-E, I-F, I-G and I-I was determined from topical application tests to IN/WHO strain, Rutgers A strain and polyvalent CH strain houseflies using the procedures of Example 5. The percent kills of the IN/WHO strain flies after 24 hours are shown in Table XXVIII; of the Rutgers A strain, in Table XXIX; and of the polyvalent CH strain, in Table XXX. The doses of insecticide alone to the CH strain files caused 10-40% mortality.
# The synergistic effect with Diazinon and GS 13005 of various of the benzyl 2-propynyl ethers identified in Tables II and IIa was determined by topical application tests on IN/WHO strain, and Rutgers A strain and polyvalent, resistant, CH strain houseflies using the procedures of Example 5. The percent kills after 24 hours of IN/WHO strain flies are shown in Table XXXI; of Rutgers A strain flies, in Table XXXII; and of CH strain flies, in Table XXXIII. The doses of insecticide alone to the CH strain flies caused 10-40% mortality.
# The synergist effect on IN/WHO flies of synergist compound II-K with Gardona and Bidrin is illustrated by the 24 hour percent mortality data in Tables XXXIV and XXXV.
# The synergistic effect on IN/WHO strain flies and Rutgers A strain flies of compound IV-C with GS 13005 and with Diazinon was determined by the topical application procedure of Example 5. The percent kills of IN/WHO strain flies after 24 hours are shown in Tables XXXVI and XXXVII; the percent kills of Rutgers A strain flies are shown in Tables XXXVIII and XXXIX.
# [2] = test system: Wilson strain house flies; format: in vivo, house fly (susceptible Wilson strain); conditions: for Contact Synergistic Ratio, Carbaryl (LC50 insecticide alone / LC50 with synergist): in vivo; for Contact Synergistic Ratio, Pyrolan (LC50 insecticide alone / LC50 with synergist): synergist to insecticide 5:1 by weight, 24 h
# Experimental: The required solutions of the insecticide and of the synergist compound were prepared in acetone at a concentration of one milligram per milliliter. One-pint wide mouth glass jars were coated wiith the appropriate insecticide-synergist combination by rolling the jars containing aliquots of the appropriate solutions diluted to three milliliters with acetone to deposit, by evaporation, a film of the test materials. The flies were transferred under carbon dioxide anesthesia and held in the jar at room temperature. Perforated aluminum foil was used to cover the jars and to hold cotton saturated with 10% sugar solution. Counts were made at intervals, but the recorded mortality was based on 24-hour kill, rather than knockdown. All prostrate nonmoving flies were considered dead. A determination was then made of the contact synergistic ratio [SR], which is the ratio of the LC50 of insecticide alone to the LC50 of the insecticide when applied together with the synergist. The LC50 of the insecticide was estimated from a log-probit plot of percent kill versus dosage. […] The LC50 of the combination of insecticide and synergist was determined at a synergist to insecticide parts by weight ratio of five to one.
# [3] = test system: mice; experiment: extension of Noludar sleeping time by synergists; format: in vivo, Swiss albino white male mice; conditions: Noludar 110 mg/K, synergist 110 mg/K; for Relative Sleeping Time: treated/control
# Experimental: (§1) The selectivity of the synergist compounds of this invention is illustrated by the results of sleeping-time extension tests and of acute toxicity tests on Swiss albino white male mice.
# (§2) The effect of various synergist compounds on sleeping time of sodium secobarbital [Secobarbital] and of 3,3-diethyl-5-methyl-2,4-dioxypiperidine [Noludar] was determined by administering the drug, with and without synergist, to approximately 38-day old male mice weighing from 25 to 30 grams. Synergists were administered in each of two doses, 74.0 mg/kg (dilution being 2.0 mg/0.1 ml corn oil), and 110.0 mg/kg (dilution 3.0 mg/0.1 ml oil). Secobarbital was administered at a dose of 37.0 mg/kg (dilution 1.0 mg/0.1 ml water). Noludar was administered at a dose of 110.0 mg/kg (dilution 3.0 mg/0.1 ml water). The synergist was administered one hour prior to administration of the Secobarbital or Noludar. Secobarbital and Noludar sleeping times were obtained for both the control (drug only) and the treated (synergist plus drug) mice by noting the time lapse between the administration of the drug and the recovery of the righting reflex, i.e. when the animal regains conciousness and can walk up an inclined wooden tray with coordination. The relative sleeping time (R.S.) was noted. The R.S. is the extended sleeping time in the treated mice (synergist plus drug) divided by the sleeping time in the control mice (drug only). The mean sleeping time for the treated mice and the R.S. are shown on Table XXXXIV for various synergist compounds.
# [4] = test system: mice; experiment: extension of Secobarbital sleeping time by synergists; format: in vivo, Swiss albino white male mice; conditions: Secobarbital 37 mg/K; for Relative Sleeping Time: treated/control
# Experimental: as §1, §2
# [5] = test system: mice; experiment: synergism of acute toxicity of Dimetilan, GS 13005, Secobarbital and Methadone (intraperitoneal); format: in vivo, Swiss albino white male mice; conditions: for number of mice dead: 48 hours, of eight mice
# Experimental: The synergism of the acute toxicity of Dimetilan by various synergists was determined by tests on Swiss albino, white male mice aged 5 to 6 weeks and weighing 23 to 27 grams. The synergists and insecticides were dissolved in corn oil and the drugs were dissolved in distilled water. All compounds were administered intraperitoneally by injection in the lower quadrent of the abdomen. The synergist was administered in 0.1 ml of corn oil 1 hour prior to administration of the insecticide. Eight mice were treated, per dosage, with each synergist. The mice were watched for a minimum of 6 hours while held in a glass jar with bedding individually after intraperitoneal injection of the test solutions. Lethality was noted, the animals were weighed and transferred in cages, and food and water were supplied. Control mice were given 0.1 ml of corn oil at the time of administration of the synergist to the test mice and 0.1 ml corn oil plus Dimetilan at the time of administration of the insecticide to the test mice.
# By the same procedure, the synergism of acute toxicity of GS 13005, Secobarbital and 6-dimethylamino-4,4-diphenyl-3-heptanone [Methadone] was determined.
# [6] = Dimetilan 8 mg/kg + synergist 80 mg/kg ip
# [7] = Dimetilan 8 mg/kg + synergist 240 mg/kg ip
SMILES,"Contact Synergistic Ratio, Carbaryl (LC50 insecticide alone / LC50 with synergist) [2]","Contact Synergistic Ratio, Pyrolan (LC50 insecticide alone / LC50 with synergist) [2]",Mean Sleeping Time [3] [min],Relative Sleeping Time [3],Mean Sleeping Time ([4]; synergist 74 mg/K) [min],Relative Sleeping Time ([4]; synergist 74 mg/K),Mean Sleeping Time ([4]; synergist 110 mg/K) [min],Relative Sleeping Time ([4]; synergist 110 mg/K),"number of mice dead [5, 6]","number of mice dead [5, 7]",other results
"CNC(=O)Oc1cc(C(C)C)cc(C(C)C)c1 [HRS 1422, 3,5-di-isopropylphenyl methylcarbamate, reference compound]",–,–,–,–,–,–,–,–,–,–,24 hour percent mortality [1]: 0%
C#CCOCc1ccc(Cl)cc1 [II-A],50,7,–,–,–,–,–,–,–,–,–
C#CCOCc1ccc(Cl)cc1Cl [II-B],50,15,–,–,–,–,–,–,–,–,–
C#CCOCc1ccc2c(c1)OCO2 [II-G],100,15,–,–,–,–,–,–,–,–,–
C#CCOCc1cccc(Cl)c1[N+](=O)[O-] [II-I],–,–,56,1.8,31,1.2,32,1.3,0,3,–
C#CCOCc1ccc(Cl)cc1[N+](=O)[O-] [II-J],–,–,70,2.2,27,1.0,30,1.4,0,4,mice lethality (number dead) ([5]; GS 13005 71 mg/kg + synergist 213 mg/kg): 6; mice lethality (number dead) ([5]; Methadone 32 mg/kg + synergist 215 mg/kg): 3; mice lethality (number dead) ([5]; Secobarbital 90 mg/kg + synergist 215 mg/kg): 0
C#CCOCc1cccc([N+](=O)[O-])c1Cl [II-L],–,–,56,1.8,31,1.0,42,1.8,0,5,–
C#CCOCc1ccc(Cl)c([N+](=O)[O-])c1 [II-M],–,–,47,2.1,29,1.0,47,2,0,3,–
C#CCOCc1ccc([N+](=O)[O-])cc1Cl [II-N],–,–,58,1.9,20,1.0,39,1.7,0,4,–
C#CCOCc1ccc([N+](=O)[O-])c(Cl)c1 [II-O],–,–,52,2.4,–,–,26,1.1,0,2,–
"C#CCn1nc(Cl)c2ccc([N+](=O)[O-])cc21 [III-C, N-(2-propynyl)-3-chloro-6-nitroindazole]",53,10,–,–,–,–,–,–,–,–,–
"C#CCOC(c1cccc2ccccc12)C(C)[N+](=O)[O-] (centres unmarked) [IV-B, 2-propynyl 1-naphthyl-2-nitropropyl ether]",50,10,–,–,–,–,–,–,–,–,–
"CCC(=O)C(CC(C)N(C)C)(c1ccccc1)c1ccccc1 (centres unmarked) [Methadone, 6-dimethylamino-4,4-diphenyl-3-heptanone, reference compound]",–,–,–,–,–,–,–,–,–,–,mice lethality (number dead) ([5]; control: Methadone 32 mg/kg in 0.1 ml corn oil): 2
"C=CCC1(C(C)CCC)C(=O)NC(=O)NC1=O (centres unmarked) [Secobarbital, sodium secobarbital, reference compound]",–,–,–,–,–,–,–,–,–,–,mice lethality (number dead) ([5]; control: Secobarbital 90 mg/kg in 0.1 ml corn oil): 0
